This passage reports IC50 and melting point results from patent publication US6602889B1, “5-heteroaryl substituted indoles” (H. Lundbeck A.S., priority 1998, dated 2003).

In one data set the target is T1, dopamine D2 receptors (Rattus norvegicus, UniProt P61169).
T1 construct: Male Wistar (Mol:Wistar) rats (125-250 g) are sacrificed and striatal tissue is dissected and weighed; from tissue; host or cells: rat corpus striatum membranes (male Wistar rats)
The data set is described as follows: Inhibition of 3H-spiperone binding to dopamine D2 receptors in rat corpus striatum in vitro. On the procedure:
Inhibition of ^3H-Spiperone Binding to Dopamine D2 Receptors in Rat Corpus Striatum in vitro
By this method, the inhibition by drugs of the binding of ^3H -spiperone (=^3H-spiro-peridol) (0.5 nM) to dopamine D-2 receptors in membranes from rat corpus striatum is determined in vitro. […] Pharmacol. Toxicol. […] This is a test for dopamine D2 receptor binding affinity in vitro.
The tissue is homogenized (Ultra Turrax, 10 sec.) in 10 mL of ice-cold 50 mM K-phosphate buffer pH 7.4 (at 25° C.). The homogenate is centrifuged twice at 20,000 g for 10 min at 4° C. with rehomogenization of the pellet in 10 mL ice-cold buffer. The final pellet is homogenized in 1300 vol (w/v) ice-cold buffer.
The binding experiment is initiated by addition of 100 μl of ^3H-spiperone (final concentration 0.5 nM) and by placing the tubes in a 37° C. water bath. […] The tubes are rinsed with 5 mL ice-cold buffer which are then poured on the filters. Thereafter, the filters are washed with 2×5 mL of buffer. The filters are placed in counting vials and 4 mL of appropriate scintillation fluid (e.g. Picofluor ™15) are added. After shaking for 1 h and storage for 2 hrs in the dark, the content of radioactivity is determined by liquid scintillation counting. Specific binding is obtained by subtracting the nonspecific binding in the presence of 10 μM of 6,7-ADTN.
For determination of the inhibition of binding, five concentrations of drugs covering 3 orders of magnitude are used.
England, specific activity 15-25 Ci/mmol.

Data set [1] concerns the target T2, serotonin S2 (5-HT2A) receptors (Rattus norvegicus, UniProt P14842).
T2 construct: Male Wistar (Mol:Wist) rats (125-250 g) are sacrificed and cortical tissue is dissected and weighed; from tissue; host or cells: rat cortex membranes (male Wistar rats)
The data set is described as follows: Inhibition of 3H-ketanserin binding to serotonin S2 (5-HT2A) receptors in rat cortex in vitro. On the procedure: Inhibition of ^3H-Ketanserin Binding to Serotonin S2 (5-HT2Å) Receptors in Rat Cortex in vitro
By this method the inhibition by drugs of the binding of ^3H-ketanserin (0.5 nM) to serotonin S2 (5-HT2) receptors in membranes from rat cortex is determined in vitro.
The tissue is homogenized (Ultra Turrax, 10 sec) in 10 mL of ice cold 50 mM tris buffer pH 7.7 (at 25° C.). The centrifuge glassware used in this step has been rinsed by sonication for 10 min in ethanol. The homogenate is centrifuged twice at 20,000 g for 10 min. at 4° C., with rehomogenization of the pellet in 10 mL icecold buffer. The final pellet is homogenized in 250 vol (w/v) icecold buffer.
Incubation tubes (96 deep well titer plate) kept on ice receive […] of ^3H ketanserin (final concentration 0.5 nM).
The binding experiment is initiated by addition of […] of tissue suspension (final tissue content corresponds to 4 mg original tissue) and by placing the 96 deep well titer plate in a 37° C. water bath. All tests are made in triplicates.
After incubation for 30 min, the samples are filtered on a Brandel harvester under vacuum (18 inch. Hg) through printed filter mat B (13 mm). Titerplate and filter are washed 2×10 sec. flow 50 L/h with ice cold buffer.
The printed filter mat with purred labelled tissue are dried for 1 h at 110° C. and hereafter placed in a sample bag with Meltilex B/HS 14.5 g and melted together on the T-tray heat seal.
Specific binding is obtained by subtracting the nonspecific binding in the presence of 1 mM mianserin.
(§1) For determination of the inhibition of binding, five concentrations of drugs covering 3 decades are used.
^3H-ketanserin=(ethylene-^3H)-ketanserin hydrochloride from New England Nuclear, specific activity 60-80 Ci/mmol.

The target in another data set is α1-adrenoceptors. The data set is described as follows: Inhibition of 3H-prazosin binding to α1-adrenoceptors in rat brain in vitro. To be noted: 3H-prazosin 0.25 nM, membranes from rat brain. On the procedure: Method and results in Hyttel & Larsen, J. Neurochem.
The tissue is homogenized (Ultra Turrax, 10 se) in 10 mL of ice cold 50 mM tris buffer pH 7.7 (at 25° C.). The homogenate is centrifuged twice at 20,000 g for 10 min at 4° C. with rehomogenization of the pellet in 10 ml icecold buffer. The final pellet is homogenized in 250 vol (w/v) icecold buffer.
The binding experiment is initiated by addition of […] of tissue suspension (final tissue content corresponds to 3 mg original tissue) and by placing the 96 deep well titer plate in a 25 ° C. water bath. All tests are made in triplicates. After incubation for 20 min, the samples are filtered on a Brandel harvester under vacuum (18 inch. Hg) through printed filtermat B (13 mm). Titerplates and filter are washed 1×10 sec flow 50 L/h with ice cold buffer.
The filter mat is dried for 1 h at 110° C. and then placed in a sample bag with Meltilex B/HS (14.5 g) and melted together on the T-Tray heat sealer.
as §1

Molecules are shown by their SMILES.

What is called IC50 is the concentration that inhibits the measured activity by half. A high value points to weaker potency in that assay. By melting point is commonly meant the temperature, or range, at which the solid turns liquid.

T2 sequence (P14842 whole entry): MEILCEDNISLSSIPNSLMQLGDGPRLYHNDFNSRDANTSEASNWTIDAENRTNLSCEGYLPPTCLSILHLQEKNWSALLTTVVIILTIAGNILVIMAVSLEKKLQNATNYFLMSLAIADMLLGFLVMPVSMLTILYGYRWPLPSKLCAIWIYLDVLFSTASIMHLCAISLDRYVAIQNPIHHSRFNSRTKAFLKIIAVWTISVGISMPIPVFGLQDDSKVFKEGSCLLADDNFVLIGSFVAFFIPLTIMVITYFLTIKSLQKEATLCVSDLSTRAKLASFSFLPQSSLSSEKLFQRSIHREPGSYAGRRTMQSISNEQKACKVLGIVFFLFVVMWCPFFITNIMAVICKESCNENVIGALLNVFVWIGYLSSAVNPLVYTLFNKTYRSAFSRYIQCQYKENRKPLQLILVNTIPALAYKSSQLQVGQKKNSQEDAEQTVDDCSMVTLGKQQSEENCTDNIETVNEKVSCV
T1 sequence (P61169 whole entry): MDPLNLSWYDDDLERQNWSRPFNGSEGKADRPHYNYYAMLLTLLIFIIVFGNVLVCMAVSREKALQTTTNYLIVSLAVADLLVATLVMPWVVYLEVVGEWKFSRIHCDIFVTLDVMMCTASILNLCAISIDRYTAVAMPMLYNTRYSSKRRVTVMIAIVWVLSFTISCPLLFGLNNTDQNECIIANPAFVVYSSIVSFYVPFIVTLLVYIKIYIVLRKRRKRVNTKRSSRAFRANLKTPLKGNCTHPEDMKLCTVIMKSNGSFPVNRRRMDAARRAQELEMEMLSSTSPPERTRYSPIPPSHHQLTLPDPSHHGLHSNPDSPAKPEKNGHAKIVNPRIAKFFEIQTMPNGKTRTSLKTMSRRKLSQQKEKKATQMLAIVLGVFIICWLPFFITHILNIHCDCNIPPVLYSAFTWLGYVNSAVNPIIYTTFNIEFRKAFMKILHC

Turning to `CN1CC=C(c2cn(-c3ccc(F)cc3)c3ccc(-c4nnn(C)n4)cc23)CC1` [Compound 21b], the melting point lay in the range of 142 to 144 °C. At dopamine D2 receptors, this compound yielded a concentration for half-maximal inhibition (IC50) of 14 nM. Moreover, the IC50 in data set [1] was > 100 nM. The IC50 on α1-adrenoceptors was found to be 9.4 nM.
